Measured values: patent publication US20210363254A1, “PHARMACEUTICAL COMBINATIONS” (Novartis AG, priority 2018, published 2021)
Where two headings read alike, the source gives them in different places.

COc1ncc(-c2nc3c(n2C(C)C)[C@H](c2ccc(Cl)cc2)N(c2cc(Cl)cn(C)c2=O)C3=O)c(OC)n1 [HDM201, (S)-5-(5-Chloro-1-methyl-2-oxo-1,2-dihydro-pyridin-3-yl)-6-(4-chloro-phenyl)-2-(2,4-dimethoxy-pyrimidin-5-yl)-1-isopropyl-5,6-dihydro-1H-pyrrolo[3,4-d]imidazol-4-one]
4 (44.4) n (%): Total, Grade 3/4 (1B 120 mg, N=9)
2 (22.2) n (%): Anaemia, All Grades (1B 120 mg, N=9) | Blood Creatine Phosphokinase Increased, All Grades (1B 120 mg, N=9) | Neutropenia, All Grades (1B 120 mg, N=9) | Neutropenia, Grade 3/4 (1B 120 mg, N=9) | White Blood Cell Count Decreased, All Grades (1B 120 mg, N=9)
7 (77.8) n (%): Nausea, All Grades (1B 120 mg, N=9)
0 n (%): Abdominal Pain, Grade 3/4 (1B 120 mg, N=9) | Alanine Aminotransferase Increased, All Grades (1B 120 mg, N=9) | Alanine Aminotransferase Increased, Grade 3/4 (1B 120 mg, N=9) | Alopecia, Grade 3/4 (1B 120 mg, N=9) | Amylase Increased, All Grades (1B 120 mg, N=9) | Amylase Increased, Grade 3/4 (1B 120 mg, N=9) | Anaemia, Grade 3/4 (1B 120 mg, N=9) | Asthenia, Grade 3/4 (1B 120 mg, N=9) | Blood Bilirubin Increased, All Grades (1B 120 mg, N=9) | Blood Bilirubin Increased, Grade 3/4 (1B 120 mg, N=9) | Blood Creatinine Increased, Grade 3/4 (1B 120 mg, N=9) | Decreased Appetite, Grade 3/4 (1B 120 mg, N=9) | Dehydration, Grade 3/4 (1B 120 mg, N=9) | Diarrhoea, Grade 3/4 (1B 120 mg, N=9) | Dry Skin, Grade 3/4 (1B 120 mg, N=9) | Dysgeusia, Grade 3/4 (1B 120 mg, N=9) | Eye Pain, All Grades (1B 120 mg, N=9) | Eye Pain, Grade 3/4 (1B 120 mg, N=9) | Fatigue, Grade 3/4 (1B 120 mg, N=9) | Folliculitis, All Grades (1B 120 mg, N=9) | Folliculitis, Grade 3/4 (1B 120 mg, N=9) | Gamma-Glutamyltransferase Increased, All Grades (1B 120 mg, N=9) | Gamma-Glutamyltransferase Increased, Grade 3/4 (1B 120 mg, N=9) | Headache, All Grades (1B 120 mg, N=9) | Headache, Grade 3/4 (1B 120 mg, N=9) | Hyperkalaemia, Grade 3/4 (1B 120 mg, N=9) | Hypocalcaemia, Grade 3/4 (1B 120 mg, N=9) | Influenza Like Illness, All Grades (1B 120 mg, N=9) | Influenza Like Illness, Grade 3/4 (1B 120 mg, N=9) | Lethargy, All Grades (1B 120 mg, N=9) | Lethargy, Grade 3/4 (1B 120 mg, N=9) | Leukopenia, Grade 3/4 (1B 120 mg, N=9) | Lipase Increased, Grade 3/4 (1B 120 mg, N=9) | Lymphopenia, All Grades (1B 120 mg, N=9) | Lymphopenia, Grade 3/4 (1B 120 mg, N=9) | Monocytosis, Grade 3/4 (1B 120 mg, N=9) | Musculoskeletal Pain, Grade 3/4 (1B 120 mg, N=9) | Myalgia, Grade 3/4 (1B 120 mg, N=9) | Neuralgia, All Grades (1B 120 mg, N=9) | Neuralgia, Grade 3/4 (1B 120 mg, N=9) | Neutrophil Count Decreased, All Grades (1B 120 mg, N=9) | Neutrophil Count Decreased, Grade 3/4 (1B 120 mg, N=9) | Oedema, All Grades (1B 120 mg, N=9) | Oedema, Grade 3/4 (1B 120 mg, N=9) | Oral Candidiasis, All Grades (1B 120 mg, N=9) | Oral Candidiasis, Grade 3/4 (1B 120 mg, N=9) | Platelet Count Decreased, Grade 3/4 (1B 120 mg, N=9) | Pruritus, All Grades (1B 120 mg, N=9) | Pruritus, Grade 3/4 (1B 120 mg, N=9) | Thrombocytopenia, Grade 3/4 (1B 120 mg, N=9) | Vomiting, Grade 3/4 (1B 120 mg, N=9) | Weight Decreased, Grade 3/4 (1B 120 mg, N=9) | White Blood Cell Count Decreased, Grade 3/4 (1B 120 mg, N=9) | Abdominal Pain, Grade 3/4 (1B 150 mg, N=8) | Alanine Aminotransferase Increased, Grade 3/4 (1B 150 mg, N=8) | Alopecia, All Grades (1B 150 mg, N=8) | Alopecia, Grade 3/4 (1B 150 mg, N=8) | Amylase Increased, All Grades (1B 150 mg, N=8) | Amylase Increased, Grade 3/4 (1B 150 mg, N=8) | Anaemia, Grade 3/4 (1B 150 mg, N=8) | Asthenia, Grade 3/4 (1B 150 mg, N=8) | Blood Bilirubin Increased, Grade 3/4 (1B 150 mg, N=8) | Blood Creatine Phosphokinase Increased, All Grades (1B 150 mg, N=8) | Blood Creatine Phosphokinase Increased, Grade 3/4 (1B 150 mg, N=8) | Blood Creatinine Increased, Grade 3/4 (1B 150 mg, N=8)
2 (25.0) n (%): Abdominal Pain, All Grades (1B 150 mg, N=8) | Anaemia, All Grades (1B 150 mg, N=8)
3 (37.5) n (%): Decreased Appetite, All Grades (1B 150 mg, N=8)
9 (100) n (%): Total, All Grades (1B 120 mg, N=9)
1 (12.5) n (%): Alanine Aminotransferase Increased, All Grades (1B 150 mg, N=8) | Asthenia, All Grades (1B 150 mg, N=8) | Blood Bilirubin Increased, All Grades (1B 150 mg, N=8) | Blood Creatinine Increased, All Grades (1B 150 mg, N=8)
1 (11.1) n (%): Abdominal Pain, All Grades (1B 120 mg, N=9) | Alopecia, All Grades (1B 120 mg, N=9) | Asthenia, All Grades (1B 120 mg, N=9) | Blood Creatine Phosphokinase Increased, Grade 3/4 (1B 120 mg, N=9) | Blood Creatinine Increased, All Grades (1B 120 mg, N=9) | Decreased Appetite, All Grades (1B 120 mg, N=9) | Dehydration, All Grades (1B 120 mg, N=9) | Dry Skin, All Grades (1B 120 mg, N=9) | Dysgeusia, All Grades (1B 120 mg, N=9) | Fatigue, All Grades (1B 120 mg, N=9) | Hyperkalaemia, All Grades (1B 120 mg, N=9) | Hypocalcaemia, All Grades (1B 120 mg, N=9) | Leukopenia, All Grades (1B 120 mg, N=9) | Lipase Increased, All Grades (1B 120 mg, N=9) | Monocytosis, All Grades (1B 120 mg, N=9) | Musculoskeletal Pain, All Grades (1B 120 mg, N=9) | Myalgia, All Grades (1B 120 mg, N=9) | Nausea, Grade 3/4 (1B 120 mg, N=9) | Thrombocytopenia, All Grades (1B 120 mg, N=9) | Weight Decreased, All Grades (1B 120 mg, N=9)
3 (33.3) n (%): Diarrhoea, All Grades (1B 120 mg, N=9) | Platelet Count Decreased, All Grades (1B 120 mg, N=9) | Vomiting, All Grades (1B 120 mg, N=9)
